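Protocol summary: plate cells (96-well), add compound at 5 concentrations, incubate 48 h, interpolate endpoints linearly. GI50: concentration for 50% inhibition of growth. TGI is the concentration that stops growth completely.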
Columns and labels:
Assay in all cases: NCI-60 cell line screen, 48 h
SW-620 colon = system: SW-620 colon
UO-31 renal = system: UO-31 renal
MDA-MB-231 breast = system: MDA-MB-231 breast
TK-10 renal = system: TK-10 renal
PC-3 prostate = system: PC-3 prostate
U251 CNS = system: U251 CNS
A498 renal = system: A498 renal
HT29 colon = system: HT29 colon
HCC-2998 colon = system: HCC-2998 colon
HOP-62 NSCLC = system: HOP-62 NSCLC
SK-OV-3 ovarian = system: SK-OV-3 ovarian
CAKI-1 renal = system: CAKI-1 renal
SK-MEL-2 melanoma = system: SK-MEL-2 melanoma
CCRF-CEM leukemia = system: CCRF-CEM leukemia
RPMI-8226 leukemia = system: RPMI-8226 leukemia
SF-295 CNS = system: SF-295 CNS
SNB-75 CNS = system: SNB-75 CNS
M14 melanoma = system: M14 melanoma
IGROV1 ovarian = system: IGROV1 ovarian
SF-268 CNS = system: SF-268 CNS
A549 NSCLC = system: A549 NSCLC
K-562 leukemia = system: K-562 leukemia
EKVX NSCLC = system: EKVX NSCLC
HCT-116 colon = system: HCT-116 colon
SNB-19 CNS = system: SNB-19 CNS
COLO 205 colon = system: COLO 205 colon
T-47D breast = system: T-47D breast
HS 578T breast = system: HS 578T breast
HL-60(TB) leukemia = system: HL-60(TB) leukemia
NCI/ADR-RES ovarian = system: NCI/ADR-RES ovarian
BT-549 breast = system: BT-549 breast
MOLT-4 leukemia = system: MOLT-4 leukemia
SR leukemia = system: SR leukemia
UACC-257 melanoma = system: UACC-257 melanoma
786-0 renal = system: 786-0 renal
UACC-62 melanoma = system: UACC-62 melanoma
MDA-MB-435 = system: MDA-MB-435
NCI-H23 lung = system: NCI-H23 lung
NCI-H460 lung = system: NCI-H460 lung
DU-145 prostate = system: DU-145 prostate
SF-539 CNS = system: SF-539 CNS
NCI-H522 lung = system: NCI-H522 lung
HCT-15 colon = system: HCT-15 colon
RXF 393 renal = system: RXF 393 renal
OVCAR-8 ovarian = system: OVCAR-8 ovarian
SK-MEL-5 melanoma = system: SK-MEL-5 melanoma
ACHN renal = system: ACHN renal
NCI-H226 lung = system: NCI-H226 lung
MCF7 breast = system: MCF7 breast
LOX IMVI melanoma = system: LOX IMVI melanoma
SK-MEL-28 melanoma = system: SK-MEL-28 melanoma
SN12C renal = system: SN12C renal
OVCAR-3 ovarian = system: OVCAR-3 ovarian
KM12 colon = system: KM12 colon
HOP-92 NSCLC = system: HOP-92 NSCLC
MALME-3M melanoma = system: MALME-3M melanoma
OVCAR-4 ovarian = system: OVCAR-4 ovarian
OVCAR-5 ovarian = system: OVCAR-5 ovarian

CCC(C(=O)C(=O)C(CC)P1(=O)OC(C)(C)CN1C(C)(C)C)P1(=O)OC(C)(C)CN1C(C)(C)C (stereo unspecified)
TGI (SW-620 colon): > 100 µM
TGI (UO-31 renal): > 100 µM
TGI (MDA-MB-231 breast): > 100 µM
TGI (TK-10 renal): > 100 µM
TGI (PC-3 prostate): > 100 µM
TGI (U251 CNS): > 100 µM
TGI (A498 renal): > 100 µM
TGI (HT29 colon): > 100 µM
TGI (HCC-2998 colon): > 100 µM
TGI (HOP-62 NSCLC): > 100 µM
TGI (SK-OV-3 ovarian): > 100 µM
TGI (CAKI-1 renal): > 100 µM
TGI (SK-MEL-2 melanoma): > 100 µM
TGI (CCRF-CEM leukemia): > 100 µM
TGI (RPMI-8226 leukemia): > 100 µM
TGI (SF-295 CNS): > 100 µM
TGI (SNB-75 CNS): > 100 µM
TGI (M14 melanoma): > 100 µM
TGI (IGROV1 ovarian): > 100 µM
TGI (SF-268 CNS): > 100 µM
TGI (A549 NSCLC): > 100 µM
TGI (K-562 leukemia): > 100 µM
TGI (EKVX NSCLC): > 100 µM
TGI (HCT-116 colon): > 100 µM
TGI (SNB-19 CNS): > 100 µM
TGI (COLO 205 colon): > 100 µM
TGI (T-47D breast): > 100 µM
TGI (HS 578T breast): > 100 µM
TGI (HL-60(TB) leukemia): > 100 µM
TGI (NCI/ADR-RES ovarian): > 100 µM
TGI (BT-549 breast): > 100 µM
TGI (MOLT-4 leukemia): 82.3 µM
TGI (SR leukemia): > 100 µM
TGI (UACC-257 melanoma): > 100 µM
TGI (786-0 renal): > 100 µM
TGI (UACC-62 melanoma): > 100 µM
TGI (MDA-MB-435): > 100 µM
TGI (NCI-H23 lung): > 100 µM
TGI (NCI-H460 lung): > 100 µM
TGI (DU-145 prostate): > 100 µM
TGI (SF-539 CNS): > 100 µM
TGI (NCI-H522 lung): > 100 µM
TGI (HCT-15 colon): > 100 µM
TGI (RXF 393 renal): > 100 µM
TGI (OVCAR-8 ovarian): > 100 µM
TGI (SK-MEL-5 melanoma): > 100 µM
TGI (ACHN renal): > 100 µM
TGI (NCI-H226 lung): > 100 µM
TGI (MCF7 breast): > 100 µM
TGI (LOX IMVI melanoma): > 100 µM
TGI (SK-MEL-28 melanoma): > 100 µM
TGI (SN12C renal): > 100 µM
TGI (OVCAR-3 ovarian): > 100 µM
TGI (KM12 colon): > 100 µM
TGI (HOP-92 NSCLC): > 100 µM

COc1ccc(-c2oc(=O)ccc2-c2cc(OC)c(OC)c(OC)c2)cc1O
GI50 (SW-620 colon): 0.612 µM
TGI (SW-620 colon): > 47.6 µM
GI50 (UO-31 renal): 3.72 µM
TGI (UO-31 renal): > 51.1 µM
GI50 (MDA-MB-231 breast): 2.8 µM
TGI (MDA-MB-231 breast): > 100 µM
GI50 (TK-10 renal): 14.1 µM
TGI (TK-10 renal): > 84.1 µM
GI50 (PC-3 prostate): 0.963 µM
TGI (PC-3 prostate): > 100 µM
GI50 (U251 CNS): 1.1 µM
TGI (U251 CNS): > 100 µM
GI50 (A498 renal): 2.57 µM
TGI (A498 renal): 28.1 µM
GI50 (HT29 colon): 3.97 µM
TGI (HT29 colon): > 47.3 µM
GI50 (HCC-2998 colon): 1.8 µM
TGI (HCC-2998 colon): 10.5 µM
GI50 (HOP-62 NSCLC): 5.37 µM
TGI (HOP-62 NSCLC): > 100 µM
GI50 (SK-OV-3 ovarian): 1.65 µM
TGI (SK-OV-3 ovarian): > 42.6 µM
GI50 (CAKI-1 renal): 3.08 µM
TGI (CAKI-1 renal): > 80.8 µM
GI50 (SK-MEL-2 melanoma): 2.31 µM
TGI (SK-MEL-2 melanoma): > 38.7 µM
TGI (MALME-3M melanoma): > 100 µM
GI50 (CCRF-CEM leukemia): 2.07 µM
TGI (CCRF-CEM leukemia): 18.9 µM
GI50 (RPMI-8226 leukemia): 1.4 µM
TGI (RPMI-8226 leukemia): 6.19 µM
GI50 (SF-295 CNS): 1.26 µM
TGI (SF-295 CNS): > 100 µM
GI50 (SNB-75 CNS): 1.26 µM
TGI (SNB-75 CNS): > 100 µM
GI50 (M14 melanoma): 0.833 µM
TGI (M14 melanoma): 30.4 µM
GI50 (SF-268 CNS): 2.04 µM
TGI (SF-268 CNS): > 72.1 µM
GI50 (A549 NSCLC): 3.41 µM
TGI (A549 NSCLC): > 100 µM
GI50 (K-562 leukemia): 0.439 µM
TGI (K-562 leukemia): > 100 µM
GI50 (EKVX NSCLC): 6.98 µM
TGI (EKVX NSCLC): > 100 µM
GI50 (OVCAR-4 ovarian): 6.65 µM
TGI (OVCAR-4 ovarian): > 100 µM
GI50 (HCT-116 colon): 0.736 µM
TGI (HCT-116 colon): > 86.6 µM
GI50 (SNB-19 CNS): 4.76 µM
TGI (SNB-19 CNS): > 100 µM
GI50 (COLO 205 colon): 6.78 µM
TGI (COLO 205 colon): 36 µM
GI50 (T-47D breast): 0.553 µM
TGI (T-47D breast): > 100 µM
GI50 (HS 578T breast): 1.51 µM
TGI (HS 578T breast): > 29.4 µM
GI50 (HL-60(TB) leukemia): 0.407 µM
TGI (HL-60(TB) leukemia): 2.03 µM
GI50 (NCI/ADR-RES ovarian): 1.48 µM
TGI (NCI/ADR-RES ovarian): > 100 µM
GI50 (BT-549 breast): 1.52 µM
TGI (BT-549 breast): > 38.5 µM
GI50 (MOLT-4 leukemia): 2.01 µM
TGI (MOLT-4 leukemia): > 100 µM
GI50 (SR leukemia): 0.267 µM
TGI (SR leukemia): > 23.8 µM
GI50 (UACC-257 melanoma): 9.87 µM
TGI (UACC-257 melanoma): > 100 µM
GI50 (786-0 renal): 2.62 µM
TGI (786-0 renal): > 75.7 µM
GI50 (UACC-62 melanoma): 1.23 µM
TGI (UACC-62 melanoma): > 49.9 µM
GI50 (NCI-H23 lung): 3.91 µM
TGI (NCI-H23 lung): > 100 µM
GI50 (NCI-H460 lung): 0.604 µM
TGI (NCI-H460 lung): > 100 µM
GI50 (DU-145 prostate): 2.05 µM
TGI (DU-145 prostate): > 100 µM
GI50 (SF-539 CNS): 1.37 µM
TGI (SF-539 CNS): > 29.9 µM
GI50 (NCI-H522 lung): 0.425 µM
TGI (NCI-H522 lung): 3.45 µM
GI50 (HCT-15 colon): 0.769 µM
TGI (HCT-15 colon): > 100 µM
GI50 (RXF 393 renal): 0.795 µM
TGI (RXF 393 renal): 3.76 µM
GI50 (OVCAR-8 ovarian): 4.34 µM
TGI (OVCAR-8 ovarian): > 100 µM
GI50 (SK-MEL-5 melanoma): 0.514 µM
TGI (SK-MEL-5 melanoma): 12.7 µM
GI50 (ACHN renal): 5.05 µM
TGI (ACHN renal): > 95.2 µM
GI50 (NCI-H226 lung): 9.81 µM
TGI (NCI-H226 lung): > 96 µM
GI50 (MCF7 breast): 0.421 µM
TGI (MCF7 breast): > 53.6 µM
GI50 (LOX IMVI melanoma): 1.65 µM
TGI (LOX IMVI melanoma): 45.3 µM
GI50 (SK-MEL-28 melanoma): 8.85 µM
TGI (SK-MEL-28 melanoma): > 100 µM
GI50 (OVCAR-5 ovarian): 12.7 µM
TGI (OVCAR-5 ovarian): > 100 µM
GI50 (SN12C renal): 6.4 µM
TGI (SN12C renal): > 100 µM
GI50 (OVCAR-3 ovarian): 0.463 µM
TGI (OVCAR-3 ovarian): 3.55 µM
GI50 (KM12 colon): 0.507 µM
TGI (KM12 colon): > 48.7 µM
GI50 (HOP-92 NSCLC): 8.61 µM
TGI (HOP-92 NSCLC): > 80.4 µM
